The target in experiment [1] is T1, Thymidylate synthase (Lactobacillus casei, UniProt P00469).
T1 sequence (P00469 whole entry): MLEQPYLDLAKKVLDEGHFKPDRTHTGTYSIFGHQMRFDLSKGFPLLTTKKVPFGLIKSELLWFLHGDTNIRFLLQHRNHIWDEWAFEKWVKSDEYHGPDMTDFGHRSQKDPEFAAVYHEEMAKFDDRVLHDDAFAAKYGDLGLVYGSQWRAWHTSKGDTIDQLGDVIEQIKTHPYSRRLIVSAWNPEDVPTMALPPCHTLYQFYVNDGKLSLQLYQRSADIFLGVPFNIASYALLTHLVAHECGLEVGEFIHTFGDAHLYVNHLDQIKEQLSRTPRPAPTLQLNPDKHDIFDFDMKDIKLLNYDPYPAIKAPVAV
The experiment is described as follows: Inhibition of dichloromethotrexate-resistant Lactobacillus casei thymidylate synthase by Dixon plot method. Also noted: species or system Lacticaseibacillus casei.

The target in experiment [2] is T1, Thymidylate synthase. The experiment is described as follows: Reversible competitive inhibition of dichloromethotrexate-resistant Lactobacillus casei thymidylate synthase using […] as substrate by Dixon plot method. The arrangement: species or system Lacticaseibacillus casei. The conditions noted are these: read-out: Ki(app).
Experiment [3] has as its system L1210. The experiment is described as follows: Cytotoxicity against mouse L1210 cells assessed as growth inhibition at 5 x 10^-6 M. The experiment is classed as functional, cell-based.
Experiment [4] deals with L1210. The experiment is described as follows: Cytotoxicity against mouse L1210 cells assessed as growth inhibition at 10^-4 M. The format is functional, cell-based.

Active and inactive are the calls of the source. The calls are words filed in the database; no cut-off is given here.

On to `O=c1[nH]c(=O)n([C@H]2C[C@H](O)[C@@H](COP(=O)(O)O)O2)cc1S`, for which the Ki at Thymidylate synthase [1] was determined as 48 nM.

On to `O=c1[nH]c(=O)n([C@H]2C[C@H](O)[C@@H](COP(=O)(O)O)O2)cc1[SeH]`, for which the Ki at Thymidylate synthase [2] came out at 60 nM.

For `O=c1[nH]c(=O)n([C@H]2C[C@H](O)[C@@H](CO)O2)cc1S`, the outcome with L1210 [3] was Active.

`O=c1[nH]c(=O)n([C@H]2C[C@H](O)[C@@H](CO)O2)cc1[Se][Se]c1cn([C@H]2C[C@H](O)[C@@H](CO)O2)c(=O)[nH]c1=O`: in the experiment on L1210 [4], the result was inactive.

(Values after ChEMBL document CHEMBL3227965, “Synthesis of 5-selenium-substituted uracil derivatives. Inhibition of thymidylate synthetase by 5-hydroseleno-2'-deoxyuridylate” (J Med Chem, 1979).)
